The values that follow are results of earlier work, collected in patent publication US20240066021A1, “METHODS FOR OPTIMIZING CFTR-MODULATOR THERAPY” (Children's Hospital Medical Center, priority 2021, published 2024).

Data set [1] concerns the target mTOR (Homo sapiens, UniProt P42345). The following applies: Target mTOR, Gene Symbol MTOR.
The target in data set [2] is HTR1B (Homo sapiens, UniProt P28222). The settings on record: Target HTR1B, Gene Symbol HTR1B.
The target of data set [3] is T1, TXNRD1 (Homo sapiens, UniProt Q16881).
T1 sequence (Q16881 151-649 limits assumed): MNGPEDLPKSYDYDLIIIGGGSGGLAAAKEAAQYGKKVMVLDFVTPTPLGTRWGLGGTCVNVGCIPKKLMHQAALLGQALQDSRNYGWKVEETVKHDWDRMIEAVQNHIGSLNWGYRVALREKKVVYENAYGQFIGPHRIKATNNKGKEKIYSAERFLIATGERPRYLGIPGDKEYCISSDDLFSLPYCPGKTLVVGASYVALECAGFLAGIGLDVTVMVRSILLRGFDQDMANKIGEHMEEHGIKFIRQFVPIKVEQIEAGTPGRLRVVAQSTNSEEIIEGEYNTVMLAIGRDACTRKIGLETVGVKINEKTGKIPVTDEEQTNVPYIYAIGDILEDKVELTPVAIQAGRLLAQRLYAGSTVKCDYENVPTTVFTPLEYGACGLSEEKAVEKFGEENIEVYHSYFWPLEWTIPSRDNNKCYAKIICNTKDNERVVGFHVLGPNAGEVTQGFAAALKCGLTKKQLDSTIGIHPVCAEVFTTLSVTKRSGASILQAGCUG

Data set [4] addresses NR2A (Homo sapiens, UniProt Q12879).
Data set [5] addresses T2, Guanylatecyclase A(NPR1) (Homo sapiens, UniProt P16066).
T2 sequence (P16066 33-1061): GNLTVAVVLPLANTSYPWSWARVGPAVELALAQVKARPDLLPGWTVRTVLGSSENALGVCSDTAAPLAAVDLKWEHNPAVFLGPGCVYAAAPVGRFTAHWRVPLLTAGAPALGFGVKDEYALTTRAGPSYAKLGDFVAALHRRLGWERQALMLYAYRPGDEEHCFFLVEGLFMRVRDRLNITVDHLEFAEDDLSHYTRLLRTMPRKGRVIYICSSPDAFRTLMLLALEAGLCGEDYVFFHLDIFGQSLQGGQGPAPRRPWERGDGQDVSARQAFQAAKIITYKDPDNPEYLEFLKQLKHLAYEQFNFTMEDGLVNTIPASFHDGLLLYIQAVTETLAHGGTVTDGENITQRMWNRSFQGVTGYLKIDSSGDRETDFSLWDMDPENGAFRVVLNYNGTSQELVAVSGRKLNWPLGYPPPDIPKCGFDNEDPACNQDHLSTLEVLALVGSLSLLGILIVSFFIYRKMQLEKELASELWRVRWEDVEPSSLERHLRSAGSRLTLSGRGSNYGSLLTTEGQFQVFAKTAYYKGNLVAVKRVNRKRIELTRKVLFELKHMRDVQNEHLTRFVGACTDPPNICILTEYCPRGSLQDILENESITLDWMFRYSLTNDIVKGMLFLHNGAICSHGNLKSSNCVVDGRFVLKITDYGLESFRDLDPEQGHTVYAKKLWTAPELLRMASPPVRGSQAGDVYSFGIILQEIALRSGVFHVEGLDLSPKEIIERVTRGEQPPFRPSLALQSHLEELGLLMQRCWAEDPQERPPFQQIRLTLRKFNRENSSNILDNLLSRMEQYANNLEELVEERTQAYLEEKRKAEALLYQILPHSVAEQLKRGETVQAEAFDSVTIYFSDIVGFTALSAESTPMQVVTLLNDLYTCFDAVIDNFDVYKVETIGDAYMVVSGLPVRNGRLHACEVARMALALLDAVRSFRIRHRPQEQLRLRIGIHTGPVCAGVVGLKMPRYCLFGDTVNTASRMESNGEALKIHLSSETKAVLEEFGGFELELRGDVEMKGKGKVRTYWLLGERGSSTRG
The following applies: Target Guanylatecyclase A(NPR1), Gene Symbol NPR1.

The target in data set [6] is NR2A/NR3A (Homo sapiens, UniProt Q12879).
Data set [7] concerns the target T3, IKK-beta (Homo sapiens, UniProt O14920).
T3 sequence (O14920 1-756): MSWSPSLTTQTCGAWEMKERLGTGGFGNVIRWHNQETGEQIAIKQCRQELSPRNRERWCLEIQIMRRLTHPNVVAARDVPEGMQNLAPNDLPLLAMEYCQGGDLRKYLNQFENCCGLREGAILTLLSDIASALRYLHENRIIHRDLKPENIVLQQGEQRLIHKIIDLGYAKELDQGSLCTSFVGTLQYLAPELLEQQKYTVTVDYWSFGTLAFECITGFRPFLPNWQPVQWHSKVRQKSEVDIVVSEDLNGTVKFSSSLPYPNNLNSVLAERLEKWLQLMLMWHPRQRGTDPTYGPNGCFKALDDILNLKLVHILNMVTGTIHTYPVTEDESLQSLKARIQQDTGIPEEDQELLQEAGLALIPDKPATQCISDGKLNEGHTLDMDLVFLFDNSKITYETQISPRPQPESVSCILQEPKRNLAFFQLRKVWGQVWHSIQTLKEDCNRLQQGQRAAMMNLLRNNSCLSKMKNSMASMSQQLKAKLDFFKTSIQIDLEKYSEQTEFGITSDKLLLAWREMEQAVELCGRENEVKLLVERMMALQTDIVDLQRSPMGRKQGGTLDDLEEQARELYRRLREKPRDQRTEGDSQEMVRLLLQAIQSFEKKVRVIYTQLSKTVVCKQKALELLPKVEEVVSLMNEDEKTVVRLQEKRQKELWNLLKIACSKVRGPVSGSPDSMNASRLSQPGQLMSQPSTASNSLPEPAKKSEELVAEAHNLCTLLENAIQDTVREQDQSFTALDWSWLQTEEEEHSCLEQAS
The settings on record: Target IKK-beta, Gene Symbol IKBKB.

In data set [8] the target is SCN2A (Homo sapiens, UniProt Q99250).
The target in data set [9] is PI3K catclass IB(p110-gamma) (Homo sapiens, UniProt P48736).
For data set [10], the system named is patients with at least one G551D mutation.
For data set [11], the system named is patients treated with ivacaftor versus patients untreated with CFTR modulators.
Setting [12] is: Target NR2A, Gene Symbol GRIN2A.
Setting [13] is: six months after drug initiation.

Like-named read-outs stand apart in the source and are kept apart here.

Sequence of NR2A (Q12879 23-1464, other chains not shown): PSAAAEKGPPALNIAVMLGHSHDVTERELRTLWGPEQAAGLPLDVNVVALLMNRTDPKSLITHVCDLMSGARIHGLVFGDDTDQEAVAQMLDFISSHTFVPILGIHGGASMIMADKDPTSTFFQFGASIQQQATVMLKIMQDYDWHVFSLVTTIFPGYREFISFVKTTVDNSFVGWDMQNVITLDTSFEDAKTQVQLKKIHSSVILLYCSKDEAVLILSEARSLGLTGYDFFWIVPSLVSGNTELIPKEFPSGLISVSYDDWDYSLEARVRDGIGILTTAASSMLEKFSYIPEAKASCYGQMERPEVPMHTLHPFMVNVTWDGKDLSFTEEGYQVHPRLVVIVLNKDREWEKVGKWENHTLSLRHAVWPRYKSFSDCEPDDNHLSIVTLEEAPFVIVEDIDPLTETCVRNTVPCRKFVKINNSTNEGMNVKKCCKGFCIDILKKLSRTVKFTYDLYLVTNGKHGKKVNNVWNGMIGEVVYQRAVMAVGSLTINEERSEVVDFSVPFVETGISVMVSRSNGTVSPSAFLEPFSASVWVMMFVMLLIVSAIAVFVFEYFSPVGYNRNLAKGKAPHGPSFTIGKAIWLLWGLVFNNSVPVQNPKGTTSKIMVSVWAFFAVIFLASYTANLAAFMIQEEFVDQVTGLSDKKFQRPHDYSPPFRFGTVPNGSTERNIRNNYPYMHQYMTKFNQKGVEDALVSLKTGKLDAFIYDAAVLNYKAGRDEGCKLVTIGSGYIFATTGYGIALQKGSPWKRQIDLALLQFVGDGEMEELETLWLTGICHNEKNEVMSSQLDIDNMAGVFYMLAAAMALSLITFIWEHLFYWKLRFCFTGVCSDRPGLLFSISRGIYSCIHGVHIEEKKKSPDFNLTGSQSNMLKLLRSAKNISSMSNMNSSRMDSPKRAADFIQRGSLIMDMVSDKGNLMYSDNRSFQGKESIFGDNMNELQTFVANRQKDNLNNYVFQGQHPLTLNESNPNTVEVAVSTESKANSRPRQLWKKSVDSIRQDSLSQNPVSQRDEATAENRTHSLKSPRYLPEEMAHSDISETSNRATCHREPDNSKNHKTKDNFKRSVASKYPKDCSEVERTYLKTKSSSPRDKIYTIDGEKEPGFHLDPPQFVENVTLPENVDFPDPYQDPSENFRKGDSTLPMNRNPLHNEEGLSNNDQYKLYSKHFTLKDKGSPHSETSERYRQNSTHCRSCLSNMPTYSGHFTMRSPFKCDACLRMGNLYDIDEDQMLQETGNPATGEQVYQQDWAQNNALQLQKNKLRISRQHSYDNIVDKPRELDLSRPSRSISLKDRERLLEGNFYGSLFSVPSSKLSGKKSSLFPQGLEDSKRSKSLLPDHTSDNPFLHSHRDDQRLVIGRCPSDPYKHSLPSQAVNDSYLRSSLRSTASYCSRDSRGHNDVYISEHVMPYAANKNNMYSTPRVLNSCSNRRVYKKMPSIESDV
Sequence of HTR1B (P28222 whole entry): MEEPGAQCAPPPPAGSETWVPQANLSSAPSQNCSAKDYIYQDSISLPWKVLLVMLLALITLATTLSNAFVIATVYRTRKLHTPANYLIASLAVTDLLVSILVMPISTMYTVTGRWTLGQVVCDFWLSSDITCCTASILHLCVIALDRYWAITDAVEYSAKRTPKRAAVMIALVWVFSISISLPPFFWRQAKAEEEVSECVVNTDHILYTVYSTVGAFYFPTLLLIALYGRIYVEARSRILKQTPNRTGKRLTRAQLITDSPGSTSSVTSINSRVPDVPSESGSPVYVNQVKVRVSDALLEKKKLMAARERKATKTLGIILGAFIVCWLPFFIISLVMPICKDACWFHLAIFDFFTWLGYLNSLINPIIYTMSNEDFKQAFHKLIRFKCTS
Sequence of PI3K catclass IB(p110-gamma) (P48736 whole entry): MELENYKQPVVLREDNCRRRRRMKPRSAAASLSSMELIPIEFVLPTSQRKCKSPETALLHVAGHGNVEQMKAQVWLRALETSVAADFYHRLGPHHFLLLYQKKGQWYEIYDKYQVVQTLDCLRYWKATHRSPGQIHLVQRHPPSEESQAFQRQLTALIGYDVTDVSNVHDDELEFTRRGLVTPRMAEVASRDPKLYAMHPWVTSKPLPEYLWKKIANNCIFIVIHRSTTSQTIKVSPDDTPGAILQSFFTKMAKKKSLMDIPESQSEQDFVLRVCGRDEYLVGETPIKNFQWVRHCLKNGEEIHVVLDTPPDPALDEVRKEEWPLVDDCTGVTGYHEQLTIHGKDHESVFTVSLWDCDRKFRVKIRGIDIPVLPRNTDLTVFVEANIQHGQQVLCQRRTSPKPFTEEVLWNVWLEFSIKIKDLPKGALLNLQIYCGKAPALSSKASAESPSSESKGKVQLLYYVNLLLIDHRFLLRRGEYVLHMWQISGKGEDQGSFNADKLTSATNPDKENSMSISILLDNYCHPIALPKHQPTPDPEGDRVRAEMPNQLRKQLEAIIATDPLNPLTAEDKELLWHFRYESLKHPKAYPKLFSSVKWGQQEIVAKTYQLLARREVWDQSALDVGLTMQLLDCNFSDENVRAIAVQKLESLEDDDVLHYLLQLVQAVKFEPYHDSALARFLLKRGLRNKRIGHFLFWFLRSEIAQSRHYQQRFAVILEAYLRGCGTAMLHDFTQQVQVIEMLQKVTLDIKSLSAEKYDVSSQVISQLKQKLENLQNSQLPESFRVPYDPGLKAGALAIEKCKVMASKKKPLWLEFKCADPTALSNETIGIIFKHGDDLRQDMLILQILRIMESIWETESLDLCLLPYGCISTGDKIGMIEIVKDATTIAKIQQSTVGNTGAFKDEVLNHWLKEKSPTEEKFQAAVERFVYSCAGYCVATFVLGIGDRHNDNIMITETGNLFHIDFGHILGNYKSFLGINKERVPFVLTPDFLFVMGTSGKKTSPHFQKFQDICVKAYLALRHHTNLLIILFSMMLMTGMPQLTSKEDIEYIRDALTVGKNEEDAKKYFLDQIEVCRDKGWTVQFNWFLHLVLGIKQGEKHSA
Sequence of NR2A/NR3A (Q12879 23-1464, other chains not shown): as the sequence (Q12879 23-1464, other chains not shown) above

For the compound `COc1ccc(-c2ccc3c(N4CCOC[C@@H]4C)nc(N4CCOC[C@@H]4C)nc3n2)cc1CO` [AZD8055], the Effect entry in [1] is “Inhibition”. With `CN(C)CCc1c[nH]c2ccc(CS(=O)(=O)N3CCCC3)cc12` [Almotriptan], in data set [2], the Effect entry is “Activation”. In the case of `CO[C@H]1C[C@@H]2CC[C@@H](C)[C@@](O)(O2)C(=O)C(=O)N2CCCC[C@H]2C(=O)O[C@H]([C@H](C)C[C@@H]2CC[C@@H](OCCO)[C@H](OC)C2)CC(=O)[C@H](C)/C=C(\C)[C@@H](O)[C@@H](OC)C(=O)[C@H](C)C[C@H](C)/C=C/C=C/C=C/1C` [Everolimus], the Effect result in [1] is “Inhibition”. Regarding `Cn1c(COP(=O)(NCCBr)NCCBr)cnc1[N+](=O)[O-]` [Evofosfamide], the Effect entry in [3] is “Inhibition”. Consider `CN[C@@H]1CCc2[nH]c3ccc(C(N)=O)cc3c2C1` [Frovatriptan], for which the Effect result in data set [2] is given as “Activation”. Take `NC(=O)CNC1Cc2ccccc2C1` [Indantadol]: the Effect result in data set [4] (setting [12]) is “Inhibition”.

`O=[N+]([O-])O[C@H]1CO[C@H]2[C@@H]1OC[C@H]2O[N+](=O)[O-]` [Isosorbide dinitrate]: the Effect result in [5] is on record as “Inhibition”. For `CNC1(c2ccccc2Cl)CCCCC1=O` (stereo not shown) [Ketamine], the Effect result in data set [6] and in data set [4] was “Inhibition” throughout. Take `C[C@@H]1CN(C(=O)CN2CC(C)(C)OC[C@H]2C(=O)Nc2cc(Cl)cc3c2[nH]c2cnccc23)C[C@H](C)O1` [MLN0415]: the Effect entry in data set [7] is “Inhibition”. Regarding `CC12CC3CC(C)(C1)CC(N)(C3)C2` [Memantine], the Effect entry is “Inhibition” in [6] (Target NR2A/NR3A, Gene Symbol GRIN2A) and “Inhibition” in [4] (setting [12]). On to `CC(=O)[O-].CC(=O)[O-].CCc1c(CC)c2cc3nc(cnc4cc(OCCOCCOCCOC)c(OCCOCCOCCOC)cc4ncc4nc(cc1[n-]2)C(CCCO)=C4C)C(C)=C3CCCO.O.[Gd+3]` [Motexafin gadolinium], for which the Effect entry in [3] (Target TXNRD1, Gene Symbol TXNRD1) is reported as “Inhibition”.

As to `CNS(=O)(=O)CCc1ccc2[nH]cc(C3CCN(C)CC3)c2c1` [Naratriptan], the Effect result in data set [2] is reported as “Activation”.

As to `CC(Cc1ccccc1)(NC(=O)CN)c1ccccc1` (stereo not shown) [Remacemide], in [4] (setting [12]), the Effect entry is on record as “Inhibition”. As to `CO[C@H]1C[C@@H]2CC[C@@H](C)[C@@](O)(O2)C(=O)C(=O)N2CCCC[C@H]2C(=O)O[C@H]([C@H](C)C[C@@H]2CC[C@@H](OP(C)(C)=O)[C@H](OC)C2)CC(=O)[C@H](C)/C=C(\C)[C@@H](O)[C@@H](OC)C(=O)[C@H](C)C[C@H](C)/C=C/C=C/C=C/1C` [Ridaforolimus], the Effect entry in data set [1] is “Inhibition”. On to `CN(C)CCc1c[nH]c2ccc(Cn3cncn3)cc12` [Rizatriptan], for which the Effect entry in [2] is “Activation”.

With `CN1CCN(c2ncc(-c3cc(Cl)cc(Cl)c3Cl)c(N)n2)CC1` [Sipatrigine], the Effect result in data set [8] was “Inhibition”.

Regarding `C=CCN(/C=C1/C(=O)O[C@H](COC)[C@@]2(C)C1=C(O)C(=O)C1=C2[C@H](OC(C)=O)C[C@]2(C)C(=O)CC[C@@H]12)CC=C` [Sonolisib], the Effect result in data set [9] was “Inhibition”. For `Nc1nc(N)c2nc(-c3cccc(O)c3)c(-c3cccc(O)c3)nc2n1` [TG100115], in [9] (Target PI3K catclass IB(p110-gamma), Gene Symbol PIK3CG), the Effect result is listed as “Inhibition”. On to `CO[C@H]1C[C@@H]2CC[C@@H](C)[C@@](O)(O2)C(=O)C(=O)N2CCCC[C@H]2C(=O)O[C@H]([C@H](C)C[C@@H]2CC[C@@H](OC(=O)C(C)(CO)CO)[C@H](OC)C2)CC(=O)[C@H](C)/C=C(\C)[C@@H](O)[C@@H](OC)C(=O)[C@H](C)C[C@H](C)/C=C/C=C/C=C/1C` [Temsirolimus intracellular, Temsirolimus], for which the Effect result in [1] is recorded as “Inhibition”. With `NC1=N[C@H](O)[C@H]2[C@H]3O[C@]4(O)O[C@@H]([C@@H](O)[C@@]2(N1)[C@@H]4O)[C@]3(O)CO` [Tetrodotoxin], the Effect result in data set [8] was “Inhibition”. Turning to `COc1cc(O)c(CC=C(C)C)c(O)c1C(=O)/C=C/c1ccc(O)cc1` [Xanthohumol], the Effect result in data set [7] is listed as “Inhibition”.

With `CC(C)(C)c1cc(C(C)(C)C)c(NC(=O)c2c[nH]c3ccccc3c2=O)cc1O` [ivacaftor], in data set [10] (setting [13]), the “mean change in ppFEV1” value is recorded as 6.7 (95% CI 4.9-8.5), the “mean change in weight” value is 2.5 kg, the “mean decline in sweat chloride” value is listed as −54 mEq and the “quality of life scores” value is listed as “improvement”. The rate of hospitalization entry in data set [10] (six months after drug initiation, p<0.001) is reported as “decreased”. For the same compound, the “portion of subjects with physiologic CFTR correction that did not have improvement in FEV1>5% (poor lung function response)” value in data set [10] (subjects with sweat chloride shifts by −40 to −80 mEq/L) is ~50%. Further, in [11] (longer term follow up), the BMI entry was “maintain improved”, the hospitalizations result is recorded as “decreasing” and the pulmonary exacerbations result was “decreasing”. The lung function decline entry in [11] (versus patients untreated with CFTR modulators) was “slowed”.

Consider Nesiritide, for which, in data set [5], the Effect result is on record as “Activation”.
